The text below walks through data of patent publication US20240245691A1 (Sitryx Therapeutics Limited, priority 2021, published 2024).

The nature of data set [1]: Hepatocyte stability assay, human. Format: in vitro ADME. The note with it: human, hepatocytes, T½. Put shortly: (§1)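 Cryopreserved hepatocytes at 0.5×10^6 cells/mL in Leibovitz buffer, 37 °C, with 10 μM compound (0.1% DMSO), duplicate. Samples at 0-60 min, acetonitrile quench, LC-MS/MS; intrinsic clearance and half-life from ln % remaining versus time, with buffer-only incubations as control.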

In data set [2] the test system is cryo-preserved hepatocytes. In words: Hepatocyte stability assay, human. Format: in vitro ADME. The settings on record: human, hepatocytes. The procedure, abridged:
as §1

Data set [3] deals with plasma protein. As to the kind of experiment: Plasma protein binding (rapid equilibrium dialysis), human. In kind it is in vitro ADME. The note with it: for Binding (%): Human plasma, 5 μM compound, 4 hours. On the procedure:
(§2) Equilibrium dialysis is an accurate and reliable method for determining protein binding affinities to chemical or biological substances of low molecular weight. The Rapid Equilibrium Dialysis (RED) plate is specifically designed and extensively validated for plasma protein binding assays. It is also designed for minimal non-specific binding (Thermo Fisher).
(§3) • Phosphate buffered saline (PBS) pH 7.4 was prepared using PBS tablets as per the manufacturer's instructions. • Compound and marker stocks were prepared at 10 mM in DMSO and further diluted to 100× the assay concentration in DMSO. • Plasma was thawed on the day of the assay and centrifuged. The supernatant was transferred to a fresh vessel and the pH adjusted to pH 7.4 using lactic acid or sodium hydroxide.
(§4) Pre-prepared 100× assay compound stocks were spiked 1:100 into pH adjusted plasma. 200 μL of spiked plasma was added to the red compartment of the rapid equilibrium dialysis (RED) device for each replicate. 350 μL of PBS was added to the buffer compartment. The plate was sealed with a breathable lid and shaken on an orbital shaker in a 37° C. incubator, 5% CO2 for 4 hours.
(§5) Standard final incubation conditions were 5 μM compound in plasma containing 1% (v/v) DMSO.
(§6) A sample of the plasma/compound mixture was taken, mixed with an equal volume of PBS and quenched 1:3 with ice-cold acetonitrile containing internal standard. Methanol was also added to matrix match with calibration curve samples. This was the t=0 sample.
(§7) Post-incubation, plasma and buffer were sampled from their respective RED device compartments into separate tubes containing an equal volume of the alternate matrix for each replicate. Samples were quenched 1:3 with ice-cold acetonitrile containing internal standard. Methanol was also added to matrix match with calibration curve samples.
Calibration curves were prepared in methanol and spiked such that the matrix was equivalent to the assay samples.
Quenched samples were mixed thoroughly and protein precipitated at −20° C. for a minimum of 12 hours. Samples were then centrifuged at 4° C. Supernatants were transferred to a fresh 96 well plate for analysis.
Positive control markers were included.
(§8) Fraction unbound, percent bound and percent recovery were the standard assay parameters reported. They were calculated using the following equations: […]
An example compound of formula (I) was tested in this assay. Reference Example 2 (RE2) (which corresponds to Example 49 in WO2020/222011 (Sitryx Therapeutics, 2020)) was used as a comparator compound.

Another data set has as its system IL-1β. In words: THP-1 AlphaLISA IL-1β cytokine assay (differentiated THP-1 cells). In kind it is cell-based. The settings on record: Homo sapiens. Put shortly:
(§9)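 PMA-differentiated THP-1 cells were preincubated 30 min with compound, stimulated with LPS for 24 h, then nigericin for 1 h, all at 37 °C. Supernatant IL-1β and IL-6 were quantified by AlphaLISA. % inhibition is normalised to +LPS and −LPS controls per cytokine.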
Background: Alpha assays give light when donor and acceptor beads are brought close together.

Data set [4] deals with plasma protein. As to the kind of experiment: Plasma protein binding (rapid equilibrium dialysis), mouse. Format: in vitro ADME. The settings on record: 5 μM compound, 4 hours. Here is the method:
as §2, §3, §4, §5, §6, §7
Calibration curves were prepared in methanol and spiked such that the matrix was equivalent to the assay samples. […]
as §8

Data set [5] concerns NRF2 (nuclear factor erythroid 2-related factor 2). In words: NRF2 +/-GSH activation assay (DiscoverX PathHunter NRF2 translocation kit, U2OS cells). In kind it is cell-based. The settings on record: Homo sapiens.
Data set [6] is described as follows: Hepatocyte stability assay, mouse. Format: in vitro ADME. The note with it: mouse, hepatocytes, T½. Put shortly: as §1
For data set [7], the system named is cryo-preserved hepatocytes. In words: Hepatocyte stability assay, mouse. Format: in vitro ADME. The settings on record: mouse, hepatocytes. Put shortly:
as §1

The subject of another data set is IL-6. In words: THP-1 AlphaLISA IL-6 cytokine assay (differentiated THP-1 cells). In kind it is cell-based. The settings on record: Homo sapiens. Put shortly:
as §9

Where [8] appears, read: U2OS, 6 h, read-out: NRF2 activation EC50, +GSH.
[9] abbreviates: U2OS, 6 h, read-out: NRF2 activation EC50, −GSH.
The mark [10] stands for this setting: U2OS, read-out: NRF2 activation Emax, +GSH.
The mark [11] stands for this setting: U2OS, read-out: NRF2 activation Emax, −GSH.
Where [12] appears, read: THP-1, differentiated THP-1 cells, LPS 24 hr then Nigericin 1 hour, read-out: IL-1β (IC50).
The mark [13] stands for this setting: U2OS, +GSH, normalised to dimethyl fumarate high control, read-out: NRF2 activation Emax, +GSH.
Where [14] appears, read: U2OS, −GSH, normalised to dimethyl fumarate high control, read-out: NRF2 activation Emax, −GSH.
[15] abbreviates: +GSH, U2OS PathHunter cells, 6 hours, read-out: NRF2 activation EC50, +GSH.
[16] abbreviates: −GSH, U2OS PathHunter cells, 6 hours, read-out: NRF2 activation EC50, −GSH.
[17] abbreviates: THP-1, differentiated THP-1 cells, LPS 24 hr then Nigericin 1 hour, read-out: IL-6 (IC50).

Molecules are shown by their SMILES. Like-named read-outs stand apart in the source and are kept apart here. Bounds are passed on as bounds.

As usually defined, the half-life is how long it takes for the measured level to halve. In general, IC50 refers to the concentration that inhibits the measured activity by half. A word on the EC50: it is the concentration at which the effect is half-maximal. A word on the Emax: it is the maximal effect, on the per cent scale that the assay sets. For `C=C(CC(=O)N[C@@H](C)c1ccc(C(F)(F)F)cc1)C(=O)O` [Example 3, (S)-2-methylene-4-oxo-4-((1-(4-(trifluoromethyl)phenyl)ethyl)amino)butanoic acid], the half-life at 10 μM in data set [1] is > 7.67 h; in data set [1] (data from repeated experiments), 5.97 h; in data set [6] it was 6.7 h; in data set [6] (data from repeated experiments), > 7.67 h. Besides, the figures for the Clint in [2] and in [7] were 4 μL min^−1 10^−6 cells and <3 μL min^−1 10^−6 cells, respectively. The “Binding (%)” value was determined as 89.0% with plasma protein [3] and 86.8% with plasma protein [4]. The “plasma protein binding compared to prior art ester compound (in words)” value in the data set on plasma protein [3] (Table 4, human and mouse plasma) is on record as “lower plasma protein binding”. Moreover, the IC50 with IL-1β (THP-1, read-out: IL-1β (IC50)) is 2.2 µM; in the data set on IL-1β (THP-1, read-out: IL-1β (IC50), data from repeated experiments), 4 µM; with IL-6 (THP-1, read-out: IL-6 (IC50)), > 82.5 µM. Besides, the concentration giving a half-maximal response (EC50) in [5] (setting [8]) and in data set [5] (setting [9]) was > 100 µM in each case. The maximal response (Emax) in data set [5] (setting [10]) and in data set [5] (setting [11]) was 0% each time.
For the compound `C=C(CC(=O)NC(C)(C)c1ccc(C(F)(F)F)cc1)C(=O)O` [Example 4, 2-methylene-4-oxo-4-((2-(4-(trifluoromethyl)phenyl)propan-2-yl)amino)butanoic acid], the half-life at 10 μM in data set [1] is 6.5 h; in data set [6] it was > 7.67 h. For the same compound, the Clint is listed as <3 μL min^−1 10^−6 cells in data set [2] and 3 μL min^−1 10^−6 cells in data set [7]. The T½ in data set [2] (10 μM) was >7.67 h. The “Binding (%)” value was 89.2% with plasma protein [3] and 83.7% with plasma protein [4]. Moreover, the half-maximal inhibitory concentration (IC50) in the data set with IL-1β (setting [12]) was 3.4 µM; in the data set on IL-1β (THP-1, differentiated THP-1 cells, footnote a: data from repeated experiments, read-out: IL-1β (IC50), data from repeated experiments) it was 3.9 µM; in the data set on IL-6 (setting [17]), > 63.1 µM. Also, the maximal response (Emax) in [5] (setting [13]) was 0%; in [5] (setting [14]), 1%. Also, the EC50 in data set [5] (setting [15]) and in [5] (setting [16]) was > 100 µM in each case.
`C=C(CC(=O)N[C@@H](C)c1ccc(C(F)(F)F)cn1)C(=O)OCCO` [Example 34, 2-hydroxyethyl (S)-2-methylene-4-oxo-4-((1-(5-(trifluoromethyl)pyridin-2-yl)ethyl)amino)butanoate]: the values for the half-life at 10 μM in data set [1] and in data set [6] were 2.28 h and 1.18 h, respectively. Further, the figures for the Clint in data set [2] and in data set [7] were 11 μL min^−1 10^−6 cells and 24 μL min^−1 10^−6 cells, respectively. Besides, the IC50 in the data set on IL-1β (setting [12]) stood at 14.8 µM; with IL-6 (setting [17]), 25.8 µM. Further, the figures for the Emax in [5] (setting [13]) and in [5] (setting [14]) were 16% and 81%, respectively. Further, the half-maximal effective concentration (EC50) was > 100 µM in data set [5] (setting [15]) and 5.7 µM in [5] (setting [16]).
`C=C(CC(=O)N[C@@H](C)c1ccc(C(F)(F)F)cn1)C(=O)OC1CN(S(C)(=O)=O)C1` [Example 37, 1-(methylsulfonyl)azetidin-3-yl (S)-2-methylene-4-oxo-4-((1-(5-(trifluoromethyl)pyridin-2-yl)ethyl)amino)butanoate]: the half-life at 10 μM came out at 0.417 h in [1] and 0.2 h in data set [6]. Further, the Clint in data set [2] worked out at 50 μL min^−1 10^−6 cells; in [7], 104 μL min^−1 10^−6 cells. For the same compound, the IC50 in the data set with IL-1β (setting [12]) worked out at 1.7 µM; in the data set on IL-6 (setting [17]), 7.29 µM. For the same compound, the maximal response (Emax) in [5] (setting [13]) worked out at 11%; in [5] (setting [14]), 90%. Moreover, the EC50 in data set [5] (setting [15]) is > 100 µM; in data set [5] (setting [16]) it was 15.8 µM.
Turning to `C/C=C(\CC(=O)N[C@@H](C)c1ccc(C(F)(F)F)cc1)C(=O)O` [Example 42, (S,E)-2-(2-oxo-2-((1-(4-(trifluoromethyl)phenyl)ethyl)amino)ethyl)but-2-enoic acid], the half-life at 10 μM in data set [1] is > 7.67 h; in [6] it was 5.38 h. Besides, the Clint is given as <3 μL min^−1 10^−6 cells in data set [2] and 3 μL min^−1 10^−6 cells in data set [7]. Further, the 50% inhibitory concentration (IC50) in the data set on IL-1β (THP-1, read-out: IL-1β (IC50)) was 2.3 µM; in the data set with IL-6 (THP-1, read-out: IL-6 (IC50)), > 68.1 µM. Besides, the EC50 in data set [5] (setting [8]) and in data set [5] (setting [9]) was > 100 µM throughout. Moreover, the maximum response (Emax) in data set [5] (setting [10]) was determined as 3%; in [5] (setting [11]), 8%.
For the compound `C=C(CC(=O)N[C@@H](C)c1ccc(C(F)(F)F)cc1)c1nnn[nH]1` [Example 57, (S)-3-(1H-tetrazol-5-yl)-N-(1-(4-(trifluoromethyl)phenyl)ethyl)but-3-enamide], the half-life at 10 μM in data set [1] and in data set [6] was > 7.67 h each time. Further, the Clint in data set [2] and in data set [7] was <3 μL min^−1 10^−6 cells throughout. Also, the half-maximal inhibitory concentration (IC50) is 1.9 µM with IL-1β (setting [12]) and > 10 µM in the data set with IL-6 (setting [17]). For the same compound, the Emax in data set [5] (setting [13]) turned out to be 48.5%; in data set [5] (setting [14]) it was 55%. The EC50 was > 100 µM in [5] (setting [15]) and 46.8 µM in [5] (setting [16]).
On to `C=C(CC(=O)OCCCCCCCC)C(=O)OCC(=O)O` [RE2, reference compound], for which the “Binding (%)” value with plasma protein [3] and in the data set with plasma protein [4] was >99% in each case.
